{"source": "patent US7842660B2", "about": "“4-hepten-2-yl salicylate and its use as fragrance ingredient” (Givaudan SA, priority 2004, dated 2010)", "test_system": "panel of trained evaluators", "assay": "Determination of the GC-odor threshold values (gas chromatograph with sniff port)", "settings": "for odor threshold value, geometric mean: GC sniff port, absolute amount of compound delivered at the sniff port, identical conditions", "description": "As used herein “odor threshold value” means the lowest concentration of a vapor in the air which can be detected by smell. Generally speaking, it can be said that a compound with a low odor threshold value is more powerful than a compound with a high odor threshold value and thus allows the use of a very low concentration in a fragrance composition to achieve an olfactory effect. According to standard procedures known to the person skilled in the art, threshold values for volatile perfumery compounds are determined on a gas chromatograph equipped with a sniff port by a panel of trained evaluators. The lowest concentration smelled by each panelist is recorded as the individual threshold value expressed in ng (absolute amount of compound delivered at the sniff port). By way of comparison, there were also tested (Z)-2-methyl-3-hexen-1-yl salicylate and (Z)-3-hexen-1-yl 2-hydroxy-3-methylbenzoate. The objective was to show the considerable effect exerted by the position of a substituent. Under identical conditions the odor threshold value for the individual compounds was measured."}
{"smiles": "CC/C=C\\C(C)COC(=O)c1ccccc1O", "note": "(centres unmarked) [(Z)-2-Methyl-3-hexen-1-yl salicylate]", "values": [{"measurement": "odor threshold value, geometric mean", "result": 10, "unit": "ng"}]}
{"smiles": "CC/C=C\\CCOC(=O)c1cccc(C)c1O", "note": "[(Z)-3-Hexen-1-yl 2-hydroxy-3-methylbenzoate]", "values": [{"measurement": "odor threshold value, geometric mean", "result": 201, "unit": "ng"}]}
{"smiles": "CC/C=C\\CCOC(=O)c1ccccc1O", "note": "[(Z)-3-Hexen-1-yl salicylate]", "values": [{"measurement": "odor threshold value, geometric mean", "result": 0.92, "unit": "ng"}]}
{"smiles": "CC/C=C\\CC(C)OC(=O)c1ccccc1O", "note": "(centres unmarked) [(Z)-4-Hepten-2-yl salicylate]", "values": [{"measurement": "odor threshold of the (Z)-isomer relative to the (E)-isomer (times lower)", "setting": "(Z)- vs (E)-4-hepten-2-yl salicylate", "result": "about 10 times"}, {"measurement": "odor threshold value, geometric mean", "result": 0.77, "unit": "ng"}]}
